Each compound was assayed on HCC1937 (assay: drug sensitivity score (DSS), CellTox Green (DSS (AUC-based score)); higher = stronger drug effect (viability inhibition or cytotoxicity); extreme values may be limits of the assay). Settings: incubation time: 72 h.
In short: (§1)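 The drug sensitivity score was computed from the area under the fitted dose-response curve. Breast cancer cell lines in 20 µl suspension went into 384-well plates holding compound at 5 concentrations (10-fold steps over a 10,000-fold, compound-specific range) for 72 h of incubation. CellTox Green fluorescence (485/520 nm) was read before CellTiter-Glo luminescence, the latter after 10 min at room temperature, and each plate was normalised to 0.1 % DMSO and a positive kill control.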

| Structure (SMILES) | drug sensitivity score |
| --- | --- |
| CCOc1cc2ncc(C#N)c(Nc3ccc(OCc4ccccn4)c(Cl)c3)c2cc1NC(=O)/C=C/CN(C)C [Neratinib] | 0 |
| C[C@@]1(C(=O)Nc2ccc(F)nc2)CCCN1c1nc(Nc2cc(C3CC3)n[nH]2)c2cccn2n1 | 0 |
| C#Cc1cccc(Nc2ncnc3cc(OC)c(OCCCCCCC(=O)NO)cc23)c1 [CUDC-101] | 0 |
| COc1ncc(-c2ccc3nccc(-c4ccnnc4)c3c2)cc1NS(=O)(=O)c1ccc(F)cc1F | 5.84 |
| Cn1c(=O)c(F)c(Nc2ccc(I)cc2F)c2c(=O)n(C[C@@H](O)CO)cnc21 [TAK-733] | 0 |
| COC1=CC(c2cc3ccccc3[nH]2)=N/C1=C\c1[nH]c(C)cc1C [Obatoclax] | 0 |
| CS(=O)(=O)OCCCCOS(C)(=O)=O [Busulfan] | 0 |
| COc1cccc2c1C(=O)c1c(O)c3c(c(O)c1C2=O)C[C@@](O)(C(C)=O)C[C@@H]3O[C@H]1C[C@H](N)[C@H](O)[C@H](C)O1 [Daunorubicin] | 0 |
| FC(F)c1nc2ccccc2n1-c1nc(N2CCOCC2)nc(N2CCOCC2)n1 [ZSTK474] | 0 |
| CN1CCN(c2ccc3nc(-c4c(N)c5c(F)cccc5[nH]c4=O)[nH]c3c2)CC1 [Dovitinib] | 0 |

These compounds were tested on HDQ-P1 in the same assay as above. Settings: incubation time: 72 h.
In short: as §1

| Structure (SMILES) | drug sensitivity score |
| --- | --- |
| C[C@@H]1C=C2C(=O)O[C@@H]3CC[C@H](C1)[C@]23O [Galiellalactone] | 0 |
| C[C@@H]1CCN(C(=O)CC#N)C[C@@H]1N(C)c1ncnc2[nH]ccc12 [Tofacitinib] | 0 |
| Nc1nccc(-c2c(-c3ccc(F)cc3)ncn2C2CCCCC2)n1 | 0 |
| CCOc1cc2ncc(C#N)c(Nc3ccc(OCc4ccccn4)c(Cl)c3)c2cc1NC(=O)/C=C/CN(C)C [Neratinib] | 0 |
| C[C@@]1(C(=O)Nc2ccc(F)nc2)CCCN1c1nc(Nc2cc(C3CC3)n[nH]2)c2cccn2n1 | 4.62 |
| C#Cc1cccc(Nc2ncnc3cc(OC)c(OCCCCCCC(=O)NO)cc23)c1 [CUDC-101] | 0 |
| COc1ncc(-c2ccc3nccc(-c4ccnnc4)c3c2)cc1NS(=O)(=O)c1ccc(F)cc1F | 0 |
| Cn1c(=O)c(F)c(Nc2ccc(I)cc2F)c2c(=O)n(C[C@@H](O)CO)cnc21 [TAK-733] | 0 |
| COC1=CC(c2cc3ccccc3[nH]2)=N/C1=C\c1[nH]c(C)cc1C [Obatoclax] | 0 |
| CS(=O)(=O)OCCCCOS(C)(=O)=O [Busulfan] | 2.69 |
| COc1cccc2c1C(=O)c1c(O)c3c(c(O)c1C2=O)C[C@@](O)(C(C)=O)C[C@@H]3O[C@H]1C[C@H](N)[C@H](O)[C@H](C)O1 [Daunorubicin] | 0 |
| FC(F)c1nc2ccccc2n1-c1nc(N2CCOCC2)nc(N2CCOCC2)n1 [ZSTK474] | 0 |
| CN1CCN(c2ccc3nc(-c4c(N)c5c(F)cccc5[nH]c4=O)[nH]c3c2)CC1 [Dovitinib] | 0 |

These compounds were tested on MCF-10A in the same assay as above. Settings: incubation time: 72 h.
In short: as §1

| Structure (SMILES) | drug sensitivity score |
| --- | --- |
| C[C@@H]1C=C2C(=O)O[C@@H]3CC[C@H](C1)[C@]23O [Galiellalactone] | 0 |
| C[C@@H]1CCN(C(=O)CC#N)C[C@@H]1N(C)c1ncnc2[nH]ccc12 [Tofacitinib] | 0 |
| Nc1nccc(-c2c(-c3ccc(F)cc3)ncn2C2CCCCC2)n1 | 3.55 |
| CCOc1cc2ncc(C#N)c(Nc3ccc(OCc4ccccn4)c(Cl)c3)c2cc1NC(=O)/C=C/CN(C)C [Neratinib] | 0 |
| C[C@@]1(C(=O)Nc2ccc(F)nc2)CCCN1c1nc(Nc2cc(C3CC3)n[nH]2)c2cccn2n1 | 6.69 |
| C#Cc1cccc(Nc2ncnc3cc(OC)c(OCCCCCCC(=O)NO)cc23)c1 [CUDC-101] | 1.27 |
| COc1ncc(-c2ccc3nccc(-c4ccnnc4)c3c2)cc1NS(=O)(=O)c1ccc(F)cc1F | 0.561 |
| Cn1c(=O)c(F)c(Nc2ccc(I)cc2F)c2c(=O)n(C[C@@H](O)CO)cnc21 [TAK-733] | 0 |
| COC1=CC(c2cc3ccccc3[nH]2)=N/C1=C\c1[nH]c(C)cc1C [Obatoclax] | 0 |
| CS(=O)(=O)OCCCCOS(C)(=O)=O [Busulfan] | 0 |
| COc1cccc2c1C(=O)c1c(O)c3c(c(O)c1C2=O)C[C@@](O)(C(C)=O)C[C@@H]3O[C@H]1C[C@H](N)[C@H](O)[C@H](C)O1 [Daunorubicin] | 0 |
| FC(F)c1nc2ccccc2n1-c1nc(N2CCOCC2)nc(N2CCOCC2)n1 [ZSTK474] | 0 |
| CN1CCN(c2ccc3nc(-c4c(N)c5c(F)cccc5[nH]c4=O)[nH]c3c2)CC1 [Dovitinib] | 0 |

These compounds were tested on MDA-MB-231 in the same assay as above. Settings: incubation time: 72 h.
In short: as §1

| Structure (SMILES) | drug sensitivity score |
| --- | --- |
| C[C@@H]1C=C2C(=O)O[C@@H]3CC[C@H](C1)[C@]23O [Galiellalactone] | 0 |
| C[C@@H]1CCN(C(=O)CC#N)C[C@@H]1N(C)c1ncnc2[nH]ccc12 [Tofacitinib] | 0 |
| Nc1nccc(-c2c(-c3ccc(F)cc3)ncn2C2CCCCC2)n1 | 0 |
| CCOc1cc2ncc(C#N)c(Nc3ccc(OCc4ccccn4)c(Cl)c3)c2cc1NC(=O)/C=C/CN(C)C [Neratinib] | 4.21 |
| C[C@@]1(C(=O)Nc2ccc(F)nc2)CCCN1c1nc(Nc2cc(C3CC3)n[nH]2)c2cccn2n1 | 6.52 |
| C#Cc1cccc(Nc2ncnc3cc(OC)c(OCCCCCCC(=O)NO)cc23)c1 [CUDC-101] | 12.7 |
| COc1ncc(-c2ccc3nccc(-c4ccnnc4)c3c2)cc1NS(=O)(=O)c1ccc(F)cc1F | 3.08 |
| Cn1c(=O)c(F)c(Nc2ccc(I)cc2F)c2c(=O)n(C[C@@H](O)CO)cnc21 [TAK-733] | 5.12 |
| COC1=CC(c2cc3ccccc3[nH]2)=N/C1=C\c1[nH]c(C)cc1C [Obatoclax] | 12.7 |
| CS(=O)(=O)OCCCCOS(C)(=O)=O [Busulfan] | 0 |
| COc1cccc2c1C(=O)c1c(O)c3c(c(O)c1C2=O)C[C@@](O)(C(C)=O)C[C@@H]3O[C@H]1C[C@H](N)[C@H](O)[C@H](C)O1 [Daunorubicin] | 0 |
| FC(F)c1nc2ccccc2n1-c1nc(N2CCOCC2)nc(N2CCOCC2)n1 [ZSTK474] | 0 |
| CN1CCN(c2ccc3nc(-c4c(N)c5c(F)cccc5[nH]c4=O)[nH]c3c2)CC1 [Dovitinib] | 0.731 |

The compounds below were run on MDA-MB-436 in the same assay as above. Settings: incubation time: 72 h.
In short: as §1

| Structure (SMILES) | drug sensitivity score |
| --- | --- |
| C[C@@H]1C=C2C(=O)O[C@@H]3CC[C@H](C1)[C@]23O [Galiellalactone] | 0 |
| C[C@@H]1CCN(C(=O)CC#N)C[C@@H]1N(C)c1ncnc2[nH]ccc12 [Tofacitinib] | 0 |
| Nc1nccc(-c2c(-c3ccc(F)cc3)ncn2C2CCCCC2)n1 | 0 |
| CCOc1cc2ncc(C#N)c(Nc3ccc(OCc4ccccn4)c(Cl)c3)c2cc1NC(=O)/C=C/CN(C)C [Neratinib] | 0 |
| C[C@@]1(C(=O)Nc2ccc(F)nc2)CCCN1c1nc(Nc2cc(C3CC3)n[nH]2)c2cccn2n1 | 0 |
| C#Cc1cccc(Nc2ncnc3cc(OC)c(OCCCCCCC(=O)NO)cc23)c1 [CUDC-101] | 5.42 |
| COc1ncc(-c2ccc3nccc(-c4ccnnc4)c3c2)cc1NS(=O)(=O)c1ccc(F)cc1F | 0 |
| Cn1c(=O)c(F)c(Nc2ccc(I)cc2F)c2c(=O)n(C[C@@H](O)CO)cnc21 [TAK-733] | 0 |
| COC1=CC(c2cc3ccccc3[nH]2)=N/C1=C\c1[nH]c(C)cc1C [Obatoclax] | 0 |
| CS(=O)(=O)OCCCCOS(C)(=O)=O [Busulfan] | 0 |
| COc1cccc2c1C(=O)c1c(O)c3c(c(O)c1C2=O)C[C@@](O)(C(C)=O)C[C@@H]3O[C@H]1C[C@H](N)[C@H](O)[C@H](C)O1 [Daunorubicin] | 1.42 |
| FC(F)c1nc2ccccc2n1-c1nc(N2CCOCC2)nc(N2CCOCC2)n1 [ZSTK474] | 0 |
| CN1CCN(c2ccc3nc(-c4c(N)c5c(F)cccc5[nH]c4=O)[nH]c3c2)CC1 [Dovitinib] | 0 |

What follows are compounds tested on MDA-MB-468 in the same assay as above. Settings: incubation time: 72 h.
In short: as §1

| Structure (SMILES) | drug sensitivity score |
| --- | --- |
| C[C@@H]1C=C2C(=O)O[C@@H]3CC[C@H](C1)[C@]23O [Galiellalactone] | 0 |
| C[C@@H]1CCN(C(=O)CC#N)C[C@@H]1N(C)c1ncnc2[nH]ccc12 [Tofacitinib] | 0 |
| Nc1nccc(-c2c(-c3ccc(F)cc3)ncn2C2CCCCC2)n1 | 0 |
| CCOc1cc2ncc(C#N)c(Nc3ccc(OCc4ccccn4)c(Cl)c3)c2cc1NC(=O)/C=C/CN(C)C [Neratinib] | 9.51 |
| C[C@@]1(C(=O)Nc2ccc(F)nc2)CCCN1c1nc(Nc2cc(C3CC3)n[nH]2)c2cccn2n1 | 18.2 |
| C#Cc1cccc(Nc2ncnc3cc(OC)c(OCCCCCCC(=O)NO)cc23)c1 [CUDC-101] | 13 |
| COc1ncc(-c2ccc3nccc(-c4ccnnc4)c3c2)cc1NS(=O)(=O)c1ccc(F)cc1F | 9.19 |
| Cn1c(=O)c(F)c(Nc2ccc(I)cc2F)c2c(=O)n(C[C@@H](O)CO)cnc21 [TAK-733] | 0 |
| COC1=CC(c2cc3ccccc3[nH]2)=N/C1=C\c1[nH]c(C)cc1C [Obatoclax] | 0 |
| CS(=O)(=O)OCCCCOS(C)(=O)=O [Busulfan] | 3.07 |
| COc1cccc2c1C(=O)c1c(O)c3c(c(O)c1C2=O)C[C@@](O)(C(C)=O)C[C@@H]3O[C@H]1C[C@H](N)[C@H](O)[C@H](C)O1 [Daunorubicin] | 4.94 |
| FC(F)c1nc2ccccc2n1-c1nc(N2CCOCC2)nc(N2CCOCC2)n1 [ZSTK474] | 0 |
| CN1CCN(c2ccc3nc(-c4c(N)c5c(F)cccc5[nH]c4=O)[nH]c3c2)CC1 [Dovitinib] | 0 |

What follows are compounds tested on MFM-223 in the same assay as above. Settings: incubation time: 72 h.
In short: as §1

| Structure (SMILES) | drug sensitivity score |
| --- | --- |
| C[C@@H]1C=C2C(=O)O[C@@H]3CC[C@H](C1)[C@]23O [Galiellalactone] | 0 |
| C[C@@H]1CCN(C(=O)CC#N)C[C@@H]1N(C)c1ncnc2[nH]ccc12 [Tofacitinib] | 0 |
| Nc1nccc(-c2c(-c3ccc(F)cc3)ncn2C2CCCCC2)n1 | 0 |
| CCOc1cc2ncc(C#N)c(Nc3ccc(OCc4ccccn4)c(Cl)c3)c2cc1NC(=O)/C=C/CN(C)C [Neratinib] | 0 |
| C[C@@]1(C(=O)Nc2ccc(F)nc2)CCCN1c1nc(Nc2cc(C3CC3)n[nH]2)c2cccn2n1 | 3.84 |
| C#Cc1cccc(Nc2ncnc3cc(OC)c(OCCCCCCC(=O)NO)cc23)c1 [CUDC-101] | 5.86 |
| COc1ncc(-c2ccc3nccc(-c4ccnnc4)c3c2)cc1NS(=O)(=O)c1ccc(F)cc1F | 3.89 |
| Cn1c(=O)c(F)c(Nc2ccc(I)cc2F)c2c(=O)n(C[C@@H](O)CO)cnc21 [TAK-733] | 0 |
| COC1=CC(c2cc3ccccc3[nH]2)=N/C1=C\c1[nH]c(C)cc1C [Obatoclax] | 0 |
| CS(=O)(=O)OCCCCOS(C)(=O)=O [Busulfan] | 0 |
| COc1cccc2c1C(=O)c1c(O)c3c(c(O)c1C2=O)C[C@@](O)(C(C)=O)C[C@@H]3O[C@H]1C[C@H](N)[C@H](O)[C@H](C)O1 [Daunorubicin] | 0 |
| FC(F)c1nc2ccccc2n1-c1nc(N2CCOCC2)nc(N2CCOCC2)n1 [ZSTK474] | 3.44 |
| CN1CCN(c2ccc3nc(-c4c(N)c5c(F)cccc5[nH]c4=O)[nH]c3c2)CC1 [Dovitinib] | 0 |
